One molecule from article PMC10137179, “Assessment of Covalently Binding Warhead Compounds in the Validation of the Cytomegalovirus Nuclear Egress Complex as an Antiviral Target” (Cells, 2023) can be followed below.

Type in all cases: cell-based
Experiment [1] deals with T1, EBV HA-BFRF1 + Flag-BFLF2 (Epstein-Barr virus, UniProt P03185+P0CK47).
T1 construct: expressed in transfected cells; host or cells: HeLa
As to the kind of experiment: Confocal imaging of core NEC localization in cotransfected HeLa cells, EBV. The note with it: 4 µM, 3 d p.t. The method, then:
HFF or HFF-UL50 cells, either Dox-induced or uninduced, were seeded in 6-well plates with a density of 2 × 10^5 cells per well, grown on coverslips and infected with HCMV AD169 or AD169 ∆UL50-ΣUL53. For infection experiments with the recombinant virus, different Shield-1 and Dox conditions were analyzed. Antivirals were added post-infection as described for the experiments. For transfection experiments, HeLa cells were seeded on coverslips in 6-well plates with a density of 3.25 × 10^5 cells per well for cotransfection with the indicated NEC expression plasmids (HSV-1 HA-UL34 + Flag-UL31, HCMV pUL50-HA + pUL53-Flag and EBV HA-BFRF1 + Flag-BFLF2). At indicated time points after virus infection, or 3 days post-transfection, cells were fixed, applied for IF staining as described previously and analyzed using a TCS SP5 confocal laser-scanning microscope with Leica LAS AF software (Leica Microsystems, Wetzlar, Germany). […] The device features a Leica photomultiplier tube (PMT) and a hybrid detector (HyD). Images were further processed using Photoshop CS5 (Adobe Inc., San José, CA, USA). […] Microscopic counting was performed for quantitation of colocalization patterns of two different proteins, as achieved by counting 50 cells per biological triplicate. […]

Experiment [2] has as its target T2, pUL50–pUL53 interaction (LgBiT::UL53-Flag + SmBiT::UL50-HA) (Human cytomegalovirus, UniProt P16791).
T2 construct: expressed in transfected cells; host or cells: 293T
The settings on record: 293T cells, 5×, 1× or 0.2× anti-HCMV EC50 levels, full-length LgBiT::UL53-Flag.

A further experiment has as its system HCMV AD169 (WT). Put plainly: qPCR-based replication assay, parental HCMV AD169 (WT) in HFF-UL50 cells. The method, then:
(§1) The viral genome copy number in cell culture supernatants was determined by IE1-specific quantitative real-time PCR (qPCR) as described previously. […] For the qPCR reactions, aliquots of infected-cell supernatants were incubated with proteinase K (Sigma-Aldrich, St. Louis, MO, USA) at 56 °C for 1 h in order to release the viral DNA. After a denaturation step at 95 °C for 5 min, the DNA samples were optionally stored at 4 °C or directly used for qPCR, as performed in a 25 µL reaction mixture containing 5 µL of either the sample or the standard DNA solution. Additional components of the reaction mixture were 12.5 µL 2× TaqMan PCR Mastermix (Applied Biosystems, Waltham, MA, USA), 7.5 pmol of each primer (5′-[…]-3′) and 5′-[…]-3′) and 5 pmol probe directed against the HCMV MIE region exon 4 (5′-[…]-3′), which was labeled with 6-carboxyfluorescein reporter dye and 6-carboxytetramethylrhodamine quencher dye. The DNA standard for quantification was prepared by serial dilutions of an MIE-inserted plasmid. The thermal cycling conditions consisted of two initial steps of 2 min at 50 °C and 10 min at 95 °C followed by 40 amplification cycles (15 s at 95 °C, 1 min 60 °C). Reactions were performed with an ABI Prism 7700 sequence detector (Applied Biosystems, Waltham, MA, USA).
(§2) To this end, the conditional expression system of the HCMV ΔUL50-ΣUL53 recombinant was applied. […] The relative differences in viral replication efficiencies, under these four chosen conditions, were normalized by two means, namely, by using the same conditions in the DMSO control panel (±S, ±D) and by evaluating viral replication in percentage values (% DMSO).
HFF-UL50 cells were cultivated in 96-well plates and infected with (A,B) HCMV ∆UL50-ΣUL53, with (C) parental HCMV AD169 (WT), using adjusted genome copy numbers, or remained uninfected (mock). Viral input was adjusted to 1 × 10^5 copies per well. […] Dox was refreshed every second day. At 14 d p.i., supernatants were harvested, and viral genome equivalents were determined using HCMV IE1-specific qPCR. […]
(Real-time PCR tracks product formation cycle by cycle.)

For the next experiment, the system named is HCMV ∆UL50-ΣUL53. As to the kind of experiment: qPCR-based replication assay, HCMV ∆UL50-ΣUL53 in HFF-UL50 cells. The method, then: as §1, §2
HFF-UL50 cells were cultivated in 96-well plates and infected with (A,B) HCMV ∆UL50-ΣUL53, with (C) parental HCMV AD169 (WT), using adjusted genome copy numbers, or remained uninfected (mock). Viral input was adjusted to 1 × 10^5 copies per well. […] Dox was refreshed every second day. At 14 d p.i., supernatants were harvested, and viral genome equivalents were determined using HCMV IE1-specific qPCR. Each condition was examined in biological quadruplicates; mean values ± SDs are shown. […] Statistical analysis was performed using ordinary one-way ANOVA and post hoc Tukey testing; **** p ≤ 0.0001; n.s., not significant.

By EC50 is commonly meant the concentration at which the effect is half-maximal.

The structures appear in SMILES notation. Where two headings read alike, the source gives them in different places.

T2 sequence (P16791 whole entry): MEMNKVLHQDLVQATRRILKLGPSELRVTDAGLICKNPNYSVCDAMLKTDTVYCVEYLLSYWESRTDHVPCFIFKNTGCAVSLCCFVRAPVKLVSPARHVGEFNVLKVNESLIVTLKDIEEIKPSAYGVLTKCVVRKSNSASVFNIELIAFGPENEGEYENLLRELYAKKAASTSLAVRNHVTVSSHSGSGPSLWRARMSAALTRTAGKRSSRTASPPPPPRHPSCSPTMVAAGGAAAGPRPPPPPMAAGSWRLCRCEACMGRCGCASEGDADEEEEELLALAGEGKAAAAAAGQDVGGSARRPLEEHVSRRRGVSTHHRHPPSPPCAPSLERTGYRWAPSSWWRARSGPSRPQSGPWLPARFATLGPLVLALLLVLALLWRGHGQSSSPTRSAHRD
T1 sequence (P03185 whole entry): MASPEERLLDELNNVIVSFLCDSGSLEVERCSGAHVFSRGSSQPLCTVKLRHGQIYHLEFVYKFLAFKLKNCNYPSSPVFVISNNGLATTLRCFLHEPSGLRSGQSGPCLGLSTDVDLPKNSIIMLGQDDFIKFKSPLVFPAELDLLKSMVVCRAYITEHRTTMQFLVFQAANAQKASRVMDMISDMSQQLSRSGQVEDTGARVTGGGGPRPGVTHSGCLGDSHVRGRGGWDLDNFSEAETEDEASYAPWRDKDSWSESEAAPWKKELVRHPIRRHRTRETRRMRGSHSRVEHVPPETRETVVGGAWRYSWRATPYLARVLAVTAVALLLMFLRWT
T1 sequence (P0CK47 whole entry): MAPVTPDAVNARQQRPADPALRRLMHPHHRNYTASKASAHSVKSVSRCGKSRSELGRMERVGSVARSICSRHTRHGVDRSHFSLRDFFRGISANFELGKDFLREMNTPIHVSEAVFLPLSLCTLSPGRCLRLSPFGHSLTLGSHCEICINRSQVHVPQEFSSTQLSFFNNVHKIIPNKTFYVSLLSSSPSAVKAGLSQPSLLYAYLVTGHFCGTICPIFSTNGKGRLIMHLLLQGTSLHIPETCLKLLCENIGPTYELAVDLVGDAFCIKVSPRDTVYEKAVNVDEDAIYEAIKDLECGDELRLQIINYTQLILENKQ

On to `C=CC(=O)N1CCC[C@@H](n2nc(-c3ccc(Oc4ccccc4)cc3)c3c(N)ncnc32)C1` [ibrutinib], for which the “core NEC nuclear rim localization (in words)” value in experiment [1] is given as “did not show any similar alteration in nuclear rim localization”. The “inhibitory effect on NanoBiT interaction signal (in words)” value in experiment [2] is recorded as “most prominent, dose-dependent reduction in the measured interaction signal”. For the same molecule, the EC50 is 2.3 ± 1.8 µM in the experiment with HCMV AD169 (WT) (Human betaherpesvirus 5, AD169, 336 h, AD169 WT, +S+D, 14 d p.i., qPCR, read-out: EC50); 2.5 ± 2.8 µM in the experiment on HCMV AD169 (WT) (Human betaherpesvirus 5, AD169, 336 h, AD169 WT, -S-D, 14 d p.i., qPCR, read-out: EC50); 2.4 µM in the experiment on HCMV AD169 (WT) (Human betaherpesvirus 5, AD169, parental HCMV AD169, qPCR-based assays, mean, read-out: mean EC50); 4.8 ± 11.1 µM in the experiment on HCMV ∆UL50-ΣUL53 (+S+D (Shield-1 1 µM, Dox 500 ng/mL), 14 d p.i., qPCR, two biological replicates); 4 ± 3.6 µM with HCMV ∆UL50-ΣUL53 (Human betaherpesvirus 5, 336 h, +S+D (Shield-1 1 µM, Dox 500 ng/mL), 14 d p.i., qPCR, two biological replicates); greater than 32 µM in the experiment with HCMV ∆UL50-ΣUL53 (Human betaherpesvirus 5, 336 h, +S-D (no pUL50 induction), 14 d p.i., qPCR). Moreover, the EC50 in the experiment with HCMV ∆UL50-ΣUL53 (Human betaherpesvirus 5, 336 h, -S+D (no pUL53 stabilization), 14 d p.i., qPCR) was greater than 32 µM; in the experiment with HCMV ∆UL50-ΣUL53 (Human betaherpesvirus 5, 336 h, -S-D (neither core NEC protein), 14 d p.i., qPCR, two replicates) it was greater than 32 µM; with HCMV ∆UL50-ΣUL53 (Human betaherpesvirus 5, read-out: mean EC50, ∆UL50-ΣUL53, +S+D, mean of replicates), 4.4 µM.
